Test results as given in US11433082B2, “Composition containing sulfoalkyl ether cyclodextrin and latanoprost” (CyDex Pharmaceuticals, Inc., priority 2008, dated 2022).
Where two headings read alike, the source gives them in different places.

Legend:
Format in all cases: physicochemical
[1] = Hydrolytic stability of aqueous compositions of latanoprost at 60° C.; conditions: compared to a solution excluding SAE-CD
Experimental: Latanoprost was measured in weighting boats (size 4×12×4 mm) by using a microbalance. The boats were put into 50 mL volumetric flask and 10 mM or 100 mM isotonic phosphate buffer (pH 5.5, 6.7 and 8.0) was added to the flask. The flask was shaken, sonicated and vortexed over an hour. The solution was filtered through a PVDF filter with 20 mL of plastic syringe. SBE-β-CyD 0, 1, 2.5, 5% w/v or BAK 0.02% were measured into 6-dram amber vials, and the filtered latanoprost solution (12 mL) was added to each vials. The vials were shaken for a few minutes at R.T, and then there were kept at 60° C. At various time points, the latanoprost in the aliquots was assayed by HPLC and the solution pH's were measured.

[2] = Photolytic (UV-B) stability of aqueous compositions of latanoprost; conditions: SAE-CD 1% or 5% w/v, pH 6.7, UV-B, compared to a solution excluding SAE-CD
Experimental: Latanoprost was measured in weighing boats (size 4×12×4 mm) by using a microbalance. The boats were put into 50 mL volumetric flask and 100 mM isotonic phosphate buffer (pH 6.7) was added to the flask. The flask was shaken, sonicated and vortexed over an hour. The solution was filtered through a PVDF filter with 20 mL of plastic syringe. SBE-β-CD 0, 1, 5% w/v and BAK 0.02% w/v were measured into each 10 mL volumetric flask and the filtered latanoprost solution were added to them. The flasks were shaken for a few minutes at R.T, and then these solutions and XALATAN® were put into quartz vessels. The Rayonet photochemical chamber reactor was used for the irradiation with RMR-3000A lamp. At various time points, the latanoprost in the aliquots was assayed by HPLC, and the solution pH's were measured before and after the light irradiation.

[3] = Phase solubility of latanoprost in the presence of SBE-β-CD (CAPTISOL); conditions: for pH: filtered supernatant
Experimental: SAE-CD increases the aqueous solubility of latanoprost. The phase solubility curve (FIG. 1) for latanoprost in the presence of SBE-β-CD (CAPTISOL®) was obtained according to Example 5. The intrinsic solubility of latanoprost in water, and in the absence of any solubilizing agent, is about 40 μg/mL. The invention provides a method of increasing the solubility of latanoprost in an aqueous composition, the method comprising including SAE-CD and latanoprost in the aqueous composition, wherein the molar ratio of SAE-CD to latanoprost, pH, concentration of SAE-CD, and concentration of latanoprost are as defined herein. In some embodiments, the SAE-CD increases the aqueous solubility of latanoprost by at least 10-fold.
Aqueous compositions containing latanoprost and different amounts of SBE-β-CD were prepared. Latanoprost (1 mg was measured into aluminum weighing boats (size 4×12×4 mm) by using a microbalance. The boats were put into the amber glass vials (Kimble vial, 1 dram) with Teflon-lined screw caps. Using a Rainin pipetman, 2.0 mL of SBE-β-CD test solution (0, 5, 10, or 20% w/v) were added to each vial. Each vial was capped, vortexed, placed on a rocker platform and gently mixed at room temperature. After 24 hours, the test vials were removed from the rocker platform, the solutions were centrifuged at 2500 rpm for 5 min, and the supernatants were filtered through 0.22 micron Millipore PVDF Millex-GV filters and the pH measured. The latanoprost in the aliquots was assayed by HPLC.

solubility at 24 h ([3]; aqueous 5% w/v SBE-β-CD (CAPTISOL) solution, pH 7.41, aqueous with cosolvent or surfactant or cyclodextrin, thermodynamic from solid, with 5% w/v CAPTISOL, room temperature, 24 hours, read-out: Latanoprost (solubility)): > 500 µg/mL
solubility at 24 h ([3]; aqueous 10% w/v SBE-β-CD (CAPTISOL) solution, pH 6.93, aqueous with cosolvent or surfactant or cyclodextrin, thermodynamic from solid, with 10% w/v CAPTISOL, room temperature, 24 hours, read-out: Latanoprost (solubility)): > 500 µg/mL
solubility at 24 h ([3]; aqueous test solution without SBE-β-CD (0% w/v), pH 8.57, water, thermodynamic from solid, without CAPTISOL, room temperature, 24 hours, read-out: Latanoprost (solubility)): 40 µg/mL
pH ([3]; with 5% w/v CAPTISOL): 7.41
pH ([3]; with 10% w/v CAPTISOL): 6.93
pH ([3]; without CAPTISOL): 8.57
solubility ([3]; water, thermodynamic from solid, in the absence of any solubilizing agent, read-out: intrinsic solubility of latanoprost in water): ~40 µg/mL
SMILES: CC(C)OC(=O)CCC/C=C\C[C@@H]1[C@@H](CC[C@@H](O)CCc2ccccc2)[C@H](O)C[C@@H]1O [Latanoprost, isopropyl (Z)-7-[(1R,2R,3R,5S)-3,5-dihydroxy-2-[(3R)3-hydroxy-5-phenylpentyl]-cyclopentyl]hept-5-enoate]
hydrolytic degradation of latanoprost ([1]; SAE-CD 1% or 5% w/v, pH 5.5 and 6.7, 60° C.): sufficient to suppress hydrolytic degradation
hydrolytic degradation of latanoprost ([1]; SAE-CD, pH 8, 60° C.): substantially reduce hydrolytic degradation
photolytic degradation of latanoprost [2]: sufficient to suppress photolytic degradation
solubility at 24 h ([3]; aqueous SBE-β-CD (SAE-CD, CAPTISOL) solution, aqueous with cosolvent or surfactant or cyclodextrin, thermodynamic from solid, solutions containing at least 5% w/v of SAE-CD, read-out: solubility of latanoprost): > 500 µg/mL
